Reference: US20250228861A1, “Cancer Treatments Using MTA-Cooperative PRMT5 Inhibitors” (AMGEN INC., priority 2022, published 2025)

How the values were obtained:
MIAPACA2T2 cells = experiment: Combination with irinotecan, CellTiter-Glo viability, Fa and CalcuSyn CI; assay type: cell-based; conditions: 6 days
Experimental: (§1) Cell viability was measured by the CellTiter-Glo Luminescence assay. Raw luminescent values were converted to fraction affected (Fa) with the following equation:
(§2) Synergy analysis was performed using the CalcuSyn software to determine CI scores based on the drug concentrations used and corresponding Fa values.

PSN1 cells = experiment: as above; assay type: cell-based; conditions: 6 days
Experimental: as §1, §2

H292 NSCLC xenografts = experiment: H292 NSCLC xenografts, combination with chemotherapy; assay type: in vivo, mice; conditions: 100 mg/kg orally once daily + paclitaxel 20 mg/kg IP
H292 cells = experiment: Combination with pemetrexed, CellTiter-Glo viability, Fa and CalcuSyn CI; conditions: 6 days;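 note: fa derived from CellTiter-Glo luminescence signal, CI calculated in CalcuSyn from doses and Fa, with 0.9–1.1 nearly additive and smaller values indicating synergism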
Experimental: as §1, §2

A549 cells = experiment: as above; conditions: 6 days;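 note: fa derived from raw CellTiter-Glo luminescence, CI computed by CalcuSyn from drug concentrations and Fa, with values below 0.9 meaning synergism and 0.9–1.1 nearly additive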
Experimental: as §1, §2

[1] = Compound G 0.83102 μM fixed + Irinotecan 0.131072 μM
[2] = Compound G 0.83102 μM fixed + Irinotecan 0.16384 μM
[3] = Compound G 0.83102 μM fixed + Irinotecan 0.2048 μM
[4] = Compound G 0.83102 μM fixed + Irinotecan 0.256 μM
[5] = Compound G 0.83102 μM fixed + Irinotecan 0.4 μM
[6] = Compound G 0.83102 μM fixed + Irinotecan 0.5 μM
[7] = Compound G 0.83102 μM fixed + Irinotecan […]
[8] = Compound G 0.0213 μM fixed + Irinotecan 0.035117 μM
[9] = Compound G 0.0213 μM fixed + Irinotecan 0.052675 μM
[10] = Compound G 0.0213 μM fixed + Irinotecan 0.079012 μM
[11] = Compound G 0.0213 μM fixed + Irinotecan 0.118519 μM
[12] = Compound G 0.0213 μM fixed + Irinotecan 0.177778 μM
[13] = Compound G 0.0213 μM fixed + Irinotecan 0.266667 μM
[14] = Compound G 0.0213 μM fixed + Irinotecan 0.4 μM
[15] = Compound G 0.437382 μM fixed + Pemetrexed 0.082858 μM
[16] = Compound G 0.437382 μM fixed + Pemetrexed 0.140859 μM
[17] = Compound G 0.437382 μM fixed + Pemetrexed 0.239461 μM
[18] = Compound G 0.437382 μM fixed + Pemetrexed 0.407083 μM
[19] = Compound G 0.437382 μM fixed + Pemetrexed 0.692042 μM
[20] = Compound G 0.437382 μM fixed + Pemetrexed 1.17647 μM
[21] = Compound G 0.437382 μM fixed + Pemetrexed 2 μM

SMILES: Nc1nc2cnc(C(=O)N3CCOC[C@@H]3c3ccc(C(F)(F)F)cc3)cc2c2c1COC2 [Compound G]
- Combination Fa (MIAPACA2T2 cells; [1]): 0.718
- Computed CI value (MIAPACA2T2 cells; [1]): 0.691
- Combination Fa (MIAPACA2T2 cells; [2]): 0.7359
- Computed CI value (MIAPACA2T2 cells; [2]): 0.751
- Combination Fa (MIAPACA2T2 cells; [3]): 0.8028
- Computed CI value (MIAPACA2T2 cells; [3]): 0.72
- Combination Fa (MIAPACA2T2 cells; [4]): 0.8794
- Computed CI value (MIAPACA2T2 cells; [4]): 0.677
- Combination Fa (MIAPACA2T2 cells; [5]): 0.9677
- Computed CI value (MIAPACA2T2 cells; [5]): 0.655
- Combination Fa (MIAPACA2T2 cells; [6]): 0.9854
- Computed CI value (MIAPACA2T2 cells; [6]): 0.649
- Combination Fa (MIAPACA2T2 cells; [7]): 0.9132
- Computed CI value (MIAPACA2T2 cells; [7]): 0.729
- Combination Fa (PSN1 cells; [8]): 0.4007
- Computed CI value (PSN1 cells; [8]): 0.981
- Combination Fa (PSN1 cells; [9]): 0.3585
- Computed CI value (PSN1 cells; [9]): 1.28
- Combination Fa (PSN1 cells; [10]): 0.4649
- Computed CI value (PSN1 cells; [10]): 1.168
- Combination Fa (PSN1 cells; [11]): 0.6137
- Computed CI value (PSN1 cells; [11]): 1.087
- Combination Fa (PSN1 cells; [12]): 0.8505
- Computed CI value (PSN1 cells; [12]): 0.852
- Combination Fa (PSN1 cells; [13]): 0.9402
- Computed CI value (PSN1 cells; [13]): 0.836
- Combination Fa (PSN1 cells; [14]): 0.9731
- Computed CI value (PSN1 cells; [14]): 0.916
- anti-tumor activity of combination with paclitaxel (H292 NSCLC xenografts): significant anti-tumor activity versus either single agent alone
- Combination Fa (H292 cells; [15]): 0.602
- Computed CI value (H292 cells; [15]): 1.359
- Combination Fa (H292 cells; [16]): 0.63
- Computed CI value (H292 cells; [16]): 1.184
- Combination Fa (H292 cells; [17]): 0.678
- Computed CI value (H292 cells; [17]): 0.914
- Combination Fa (H292 cells; [18]): 0.741
- Computed CI value (H292 cells; [18]): 0.64
- Combination Fa (H292 cells; [19]): 0.827
- Computed CI value (H292 cells; [19]): 0.342
- Combination Fa (H292 cells; [20]): 0.885
- Computed CI value (H292 cells; [20]): 0.216
- Combination Fa (H292 cells; [21]): 0.904
- Computed CI value (H292 cells; [21]): 0.235
- Combination Fa (A549 cells; [15]): 0.669
- Computed CI value (A549 cells; [15]): 0.846
- Combination Fa (A549 cells; [16]): 0.651
- Computed CI value (A549 cells; [16]): 1.064
- Combination Fa (A549 cells; [17]): 0.693
- Computed CI value (A549 cells; [17]): 0.882
- Combination Fa (A549 cells; [18]): 0.712
- Computed CI value (A549 cells; [18]): 0.922
- Combination Fa (A549 cells; [19]): 0.834
- Computed CI value (A549 cells; [19]): 0.363
- Combination Fa (A549 cells; [20]): 0.918
- Computed CI value (A549 cells; [20]): 0.132
- Combination Fa (A549 cells; [21]): 0.948
- Computed CI value (A549 cells; [21]): 0.087
